Experimental data from the Kinase Knowledgebase extract (Sharma et al. 2016).

Target: MAPK14 (human) (UniProt Q16539)
Assay: Inhibition of MAPK14 Kinase Activity

Chain of MAPK14 (human) (Q16539 whole entry, looked up): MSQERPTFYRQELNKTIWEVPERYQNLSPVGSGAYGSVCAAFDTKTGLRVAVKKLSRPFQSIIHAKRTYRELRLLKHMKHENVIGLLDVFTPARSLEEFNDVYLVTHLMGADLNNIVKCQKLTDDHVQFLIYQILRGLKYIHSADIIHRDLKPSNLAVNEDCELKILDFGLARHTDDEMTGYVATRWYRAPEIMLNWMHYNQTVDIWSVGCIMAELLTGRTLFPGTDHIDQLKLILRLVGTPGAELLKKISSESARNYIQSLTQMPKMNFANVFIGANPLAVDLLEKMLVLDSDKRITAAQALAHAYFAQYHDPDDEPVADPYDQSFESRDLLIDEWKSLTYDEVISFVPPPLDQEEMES

IC50, ≤ 5 µM:
CC(C)Cn1cnc2ccc(-c3[nH]c(-c4c(F)cccc4F)nc3-c3ccccc3)cc21
CC(C)(C)Cn1c(N)nc2ccc(-c3[nH]c(-c4c(F)cccc4Cl)nc3-c3ccc(F)cc3F)cc21
CC(C)Cn1c(N)nc2ccc(-c3[nH]c(-c4ccccc4C(F)(F)F)nc3-c3ccc(F)cc3)cc21
CC(C)(C)Cn1c(N)nc2ccc(-c3[nH]c(C(C)(C)C)nc3-c3ccccc3)cc21
CC(C)Cn1c(N)nc2ccc(-c3[nH]c(-c4c(F)cccc4Cl)nc3-c3ccc(F)cc3F)cc21
CC(C)Cn1c(N)nc2ccc(-c3cn(C)nc3-c3ccc(F)cc3)cc21
CC(C)Cn1c(N)nc2ccc(-c3[nH]c(-c4c(F)cccc4C(F)(F)F)nc3-c3ccccc3)cc21
CC(C)Cn1c(N)nc2ccc(-c3[nH]c(-c4c(F)cccc4Cl)nc3-c3ccccc3)cc21
CC(C)Cn1c(N)nc2ccc(-c3cn(C(C)C)nc3-c3ccccc3)cc21
Nc1nc2ccc(-c3[nH]c(-c4c(F)cccc4F)nc3-c3ccccc3)cc2n1CC1CCCCC1
C[C@@H](n1c(N)nc2ccc(-c3[nH]c(-c4c(Cl)cccc4Cl)nc3-c3ccccc3)cc21)C(C)(C)C
Clc1ccc(-c2nc(-c3ccccc3)c(-c3ccc4ncn(CC5CC5)c4c3)[nH]2)cc1
Cc1onc(-c2ccccc2)c1-c1ccc2nc(N)n(S(=O)(=O)C(C)C)c2c1
CCn1cnc2ccc(-c3[nH]c(-c4c(F)cccc4F)nc3-c3ccccc3)cc21
CC(C)Cn1c(N)nc2ccc(-c3[nH]c(-c4ccc(Cl)cc4)nc3-c3ccc(F)cc3)cc21
CC(C)n1cnc2ccc(-c3n[nH]nc3-c3ccccc3)cc21
Nc1nc2ccc(-c3nc(C4CC4)[nH]c3-c3ccc(F)cc3F)cc2n1CC1CC1
CC(C)n1cnc2ccc(-c3[nH]c(-c4c(F)cccc4F)nc3-c3ccccc3)cc21
CC(C)Cn1c(N)nc2ccc(-c3cn[nH]c3-c3ccc(F)cc3)cc21
CC(C)(C)Cn1c(N)nc2ccc(-c3[nH]c(C(C)(C)C)nc3-c3ccc(F)cc3F)cc21
CC(C)Cn1c(N)nc2ccc(-c3[nH]c(C(F)(F)F)nc3-c3ccccc3)cc21
CC(C)Cn1c(N)nc2ccc(-c3c[nH]nc3-c3ccccc3)cc21
Nc1nc2ccc(-c3[nH]c(-c4c(F)cccc4F)nc3-c3ccccc3)cc2n1CC1CC1
CC(C)(C)Cn1c(N)nc2ccc(-c3[nH]c(C4CC4)nc3-c3ccc(F)cc3F)cc21
Cc1nc(-c2ccc(F)cc2F)c(-c2ccc3nc(N)n(C(C)C(C)C)c3c2)[nH]1 (stereo not drawn)
CC(C)Cn1c(N)nc2ccc(-c3[nH]c(C(C)(C)C)nc3-c3ccc(F)cc3)cc21
Cn1c(N)nc2ccc(-c3[nH]c(-c4c(F)cccc4F)nc3-c3ccccc3)cc21
Fc1cccc(F)c1-c1nc(-c2ccccc2)c(-c2ccc3ncn(CC4CC4)c3c2)[nH]1
CC(C)Cn1c(N)nc2ccc(-c3c(-c4ccccc4)ncn3C)cc21
C[C@@H](n1c(N)nc2ccc(-c3[nH]c(C(C)(C)C)nc3-c3ccccc3)cc21)C(C)(C)C
CC(C)Cn1c(N)nc2ccc(-c3c(-c4ccccc4)nc(C4CC4)n3C)cc21
CC(C)Cn1c(N)nc2ccc(-c3c[nH]nc3-c3ccc(F)cc3F)cc21
CCn1c(N)nc2ccc(-c3[nH]c(-c4c(F)cccc4F)nc3-c3ccccc3)cc21
Nc1nc2ccc(-c3[nH]c(-c4c(F)cccc4F)nc3-c3ccccc3)cc2n1C1CCCC1
CCCCn1c(N)nc2ccc(-c3[nH]c(-c4c(F)cccc4F)nc3-c3ccccc3)cc21
CC(C)Cn1cnc2ccc(-c3c(-c4ccccc4)ncn3C3CCCCC3)cc21
CC(C)Cn1c(N)nc2ccc(-c3[nH]c(C4CC4)nc3-c3ccc(F)cc3)cc21
Cn1cnc2ccc(-c3[nH]c(-c4c(F)cccc4F)nc3-c3ccccc3)cc21
